Measured values from US8093286B2, “Methods for treatment with bucindolol based on genetic targeting” (The Regents of the University of Colorado, a body corporate, priority 2004, dated 2012).
“Also recorded” adds a separate entry of the source.

Experiments:
[1] = tested on: failing human right ventricular trabeculae; test: contractile response of isolated right ventricular trabeculae from failing human hearts; conditions: for maximal isoproterenol-stimulated systolic tension: failing hearts
Description: (§1) Nonfailing hearts were obtained from local potential organ donors whose hearts were not transplanted because of physical or ABO blood type incompatibility. Failing hearts were from patients with end-stage heart failure due to ischemic or non-ischemic dilated cardiomyopathies who underwent cardiac transplantation. The demographic characteristics of the hearts are provided in Results. The contractile response of isolated, field stimulated, human trabeculae was assessed as previously described {1755; a-c}. Trabeculae of uniform size (1 to 2×6 to 8 mm) were mounted in 80 ml muscle bath chambers in Tyrode's solution at pH 7.45 bubbled with 95% O2-5% CO2 at 36^0. After equilibration, a tension of 75% of Lmax was applied to each individual trabeculum. Field-stimulation by a 5-ms pulse at 10% above threshold was then applied, and after equilibration full dose-response curves to isoproterenol, bucindolol or xamoterol were performed using the indicated concentrations and application of increasing doses every 5 minutes. In experiments in which forskolin was used to enhance signal transduction {e,f}, 10^−6 M of this adenylyl cyclase activator was applied to the tissue baths 15-20 minutes prior to the performance of dose-response curves, and allowed to achieve stability of tension response. Systolic tension at each dose was calculated as the stimulated tension in mN/mm^2 minus baseline tension. The maximum tension, concentration of isoproterenol that produced 50% of the maximum developed tension (EC50) and curve slope were computed by nonlinear repeated measures analysis of covariance. […] Statistical methods were employed as described in Examples 3 and 4.

[2] = tested on: nonfailing human right ventricular trabeculae; test: contractile response of isolated right ventricular trabeculae from nonfailing human hearts
Description: as §1

heart failure patients = conditions: cited from earlier work
norepinephrine = conditions: 3 months, MOXCON Trial; cited from earlier work
[3] = tested on: β1-Arg389 transgenic mice (ventricular expression of human β1AR); test: chronic β-blockade in transgenic mice, Western blots of ventricular signaling and Ca2+-handling proteins; assay type: in vivo, mouse; conditions: 0.5 mg/ml in drinking water for 6 months; ANOVA P<0.002
Description: (§2) Using the α-myosin heavy chain promoter, transgenic mice with targeted ventricular expression of the human β1AR (Arg389 or Gly389 forms) were utilized to ascertain allele-specific responses to chronic administration of the […] propranolol. […] The generation of these mice and their partial characterization has recently been reported in detail elsewhere (Perez et al, 2003). For the current studies, 3-month-old mice of both genotypes, as well as nontransgenic mice, were treated with propranolol (0.5 mg/ml) in their drinking water, or water without propranolol (control) continuously for 6 months. Hearts were then removed and ventricular protein extracts prepared. These were subjected to Western blotting to ascertain expression of the following proteins using methods previously described (Perez et al., 2003): Gαs, Gαi2, G-protein coupled receptor kinase-2 (GRK2), adenylyl cyclase type 5 (AC5), total phospholamban (T-PLN), phosphorylated phospholamban (P-PLN) and sarcoplasmic endoplasmic reticulum calcium ATPase-2A (SERCA). Treatment effect was assessed by comparing expression of the proteins of untreated and propranolol treated mice, within genotype, by ANOVA. The study was approved by the University of Cincinnati Animal Use and Care Committee.

[4] = tested on: β1-Gly389 transgenic mice (ventricular expression of human β1AR); test: as above; assay type: in vivo, mouse; conditions: 0.5 mg/ml in drinking water for 6 months; P=0.67
Description: as §2

[5] = U.S. enrolled patients in MERIT-HF

COc1ccccc1OCCNCC(O)COc1cccc2[nH]c3ccccc3c12 (stereo not drawn) [carvedilol]
positive inotropic signal compared with bucindolol ([1]; failing heart, forskolin pretreated preparations): more of a positive inotropic signal than bucindolol

CC(C)NCC(O)c1ccc(O)c(O)c1 (stereo not drawn) [isoproterenol]
maximal isoproterenol-stimulated systolic tension ([1]; β1-Arg389 homozygotes): 9.4±1.9 mN/mm^2 | maximal isoproterenol-stimulated systolic tension ([1]; β1-Gly389 carriers): 2.4±0.60 mN/mm^2 | maximal isoproterenol-stimulated systolic tension ([2]; β1-Arg389 homozygotes): 13±2.5 mN/mm^2 | maximal isoproterenol-stimulated systolic tension ([2]; β1-Gly389 carriers): 5.2±1.4 mN/mm^2

COCCc1ccc(OCC(O)CNC(C)C)cc1.COCCc1ccc(OCC(O)CNC(C)C)cc1.O=C(O)CCC(=O)O (stereo not drawn) [metoprolol CR/XL, metoprolol succinate CR/XL]
Mortality + HF Hospitalization hazard ratio vs placebo (heart failure patients; MERIT-HF US Pts (n = 1071/3991)): ~0.84; 200 Ev | mortality plus heart failure hospitalization hazard ratio vs placebo (heart failure patients; MERIT-HF entire cohort (UCL 0.80)): 0.69 | mortality increase (heart failure patients; [5]): 5% | mortality+HF hospitalization decrease (heart failure patients; [5]): 16%

COc1nc(C)nc(Cl)c1N=C1NCCN1 [moxonidine]
relative reduction in norepinephrine (norepinephrine): 24%

CC(C)NCC(O)COc1cccc2ccccc12 (stereo not drawn) [propranolol]
treatment effect on expression of cardiac signaling and Ca2+-handling proteins [3]: overall treatment response | treatment effect on expression of cardiac signaling and Ca2+-handling proteins [4]: no effect

O=C(NCCNCC(O)COc1ccc(O)cc1)N1CCOCC1 (stereo not drawn) [xamoterol]
inotropic effect on systolic force (dose-response curve slope) ([1]; β1AR Arg/Arg, forskolin pretreatment): increase in force | inotropic effect on systolic force (dose-response curve slope) ([1]; β1AR Arg/Arg, forskolin pretreatment, listed as Xamoterol): positive inotropic effect | inotropic effect on systolic force (dose-response curve slope) ([1]; β1AR Arg/Arg, without forskolin): increase in force; also recorded: positive inotropic effect | inotropic effect on systolic force (dose-response curve slope) ([1]; β1AR Gly carriers, forskolin pretreatment): increase in force | inotropic effect on systolic force (dose-response curve slope) ([1]; β1AR Gly carriers, forskolin pretreatment, listed as Xamoterol): positive inotropic effect | inotropic effect on systolic force (dose-response curve slope) ([1]; β1AR Gly carriers, without forskolin): negative inotropic effect
